Test results taken from patent US20040198731A1, “Aminoalkyl-substituted aromatic bicyclic compounds, methods for their preparation and their use as pharmaceuticals” (Aventis Pharma Deutschland GmbH, priority 2001, published 2004).

Target: T1, human MCH receptor (Homo sapiens, UniProt Q99705)
T1 construct: expressed in transfected cells
Experiment: Functional measurement of cellular calcium flow (FLIPR) in recombinant HEK293 cells expressing human MCH receptor
Assay type: cell-based
Settings: cellular assay, calcium flow after addition of agonist (MCH), HEK293 (PEAK Stable Cells) expressing human MCH receptor
Source text: In two simultaneously published articles in Nature (Nature, 400:261-264, 1999; Nature, 400:265-269, 1999, see enclosure), two groups separately described a highly specific receptor for melanin-concentrating hormone (MCH). MCH takes over important functions in the control of food intake. Compounds acting on the MCH receptor therefore have anorectic action and are suitable for the treatment of obesity. The test for anorectic action of the inventive compounds of formula I was therefore carried out as follows.
Functional measurements for determination of IC50
Cloning of the cDNA for human MCH receptor, preparation of a recombinant HEK293 cell line expressing human MCH receptor and functional measurements with said recombinant cell line were carried out according to the description by Audinot et al. (J. Biol. Chem., 276, 13554-13562, 2001). In contrast to the reference, however, plasmid pEAK8 from EDGE Biosystems (USA) was used for constructing the expression vector. A transformed HEK cell line named “PEAK Stable Cells” (likewise from EDGE Biosystems) served as host for transfection. The functional measurements of cellular calcium flow, after addition of agonists (MCH), in the presence of the ligand of the invention was carried out with the aid of the FLIPR instrument from Molecular Devices (USA), using the manufacturer's protocols.

T1 sequence (Q99705 whole entry): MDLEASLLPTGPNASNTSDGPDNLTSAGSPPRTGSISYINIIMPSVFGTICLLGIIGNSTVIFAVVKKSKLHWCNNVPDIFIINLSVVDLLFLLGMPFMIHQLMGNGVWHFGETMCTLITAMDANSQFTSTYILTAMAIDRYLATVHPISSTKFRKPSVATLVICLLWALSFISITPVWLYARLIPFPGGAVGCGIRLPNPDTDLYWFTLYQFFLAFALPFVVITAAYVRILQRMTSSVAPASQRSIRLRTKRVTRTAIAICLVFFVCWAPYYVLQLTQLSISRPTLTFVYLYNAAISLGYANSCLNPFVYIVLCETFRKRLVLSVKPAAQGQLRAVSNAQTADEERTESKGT

Compound `CN(C)CCn1ccc2cc(NC(=O)Nc3ccc(Oc4cccc(C(F)(F)F)c4)cc3)ccc21` [Example 86, 1-[1-(2-Di-methylaminoethyl)-1H-in-dol-5-yl]-3-[4-(3-tri-fluoromethyl-phenoxy)phenyl]urea] has an IC50 of 2780 nM.
Compound `Cc1cccc(Oc2ccc(NC(=O)Nc3ccc4c(ccn4CCN(C)C)c3)cc2)c1` [Example 107, 1-[1-(2-Di-methylaminoethyl)-1H-in-dol-5-yl]-3-(4-m-tolyl-oxyphenyl)urea] has an IC50 of 1000 nM.
For `Cc1ccc(Oc2ccc(NC(=O)Nc3ccc4c(ccn4CCN(C)C)c3)cc2)cc1` [Example 84, 1-[1-(2-Di-methylaminoethyl)-1H-in-dol-5-yl]-3-(4-p-tolyl-oxyphenyl)urea], the IC50 was 400 nM.
Work on `Cc1ccccc1Oc1ccc(NC(=O)Nc2ccc3c(ccn3CCN(C)C)c2)cc1` [Example 108, 1-[1-(2-Di-methylaminoethyl)-1H-in-dol-5-yl]-3-(4-o-tolyl-oxyphenyl)urea] yielded an IC50 of 430 nM.
In the case of `CN(C)CCn1ccc2cc(NC(=O)Nc3ccc(N4CC=CCC4)cc3)ccc21` [Example 24, 1-[4-(3,6-Dihydro-2H-py-ridin-1-yl)phenyl]-3-[1-(2-di-methylaminoethyl)-1H-in-dol-5-yl]urea], the IC50 is reported as 860 nM.
`CC(C)COc1ccc(NC(=O)Nc2ccc3c(ccn3CCN(C)C)c2)c(F)c1` [Example 63, 1-[1-(2-Dimethyl-aminoethyl)-1H-in-dol-5-yl]-3-(2-fluoro-4-iso-butoxyphenyl)urea] was tested, and the IC50 was 570 nM.
`CN(C)CCn1c(-c2ccccc2)nc2cc(NC(=O)Nc3ccc(Oc4ccccc4)cc3)ccc21` [Example 13, 1-[1-(2-Dimethylaminoethyl)-2-phenyl-1H-benzoimidazol-5-yl]-3-(4-phenoxyphenyl)urea] showed an IC50 of 2500 nM.
`Cc1nc2cc(NC(=O)Nc3ccc(OC(C)C)cc3)ccc2n1CCN1CCOCC1` [Example 8, 1-(4-Isopropoxyphenyl)-3-[2-methyl-1-(2-morpholin-4-yl-ethyl)-1H-benzoimidazol-5-yl]urea] gave an IC50 of 1900 nM.
In the case of `CC1CCN(c2ccc(NC(=O)Nc3ccc4c(ccn4CCN(C)C)c3)cc2)CC1` [Example 33, 1-[1-(2-Di-methylaminoethyl)-1H-in-dol-5-yl]-3-[4-(4-methyl-piperidin-1-yl)phe-nyl]urea], the IC50 is reported as 1240 nM.
`CCc1nc2cc(NC(=O)Nc3ccc(Oc4ccccc4)cc3)ccc2n1CCN1CCCC1` [Example 14, 1-[2-Ethyl-1-(2-pyrrolidin-1-ylethyl)-1H-benzoimidazol-5-yl]-3-(4-phenoxyphenyl)urea] was tested, and the IC50 was 300 nM.
`Cc1c(C)n(CCN(C)C)c2ccc(NC(=O)Nc3ccc(Oc4ccccc4)cc3)cc12` [Example 18, 1-[1-(2-Dimethylaminoethyl)-2,3-dimethyl-1H-indol-5-yl]-3-(4-phenoxyphenyl)urea] showed an IC50 of 1040 nM.
`CC1CCCN(c2ccc(NC(=O)Nc3ccc4c(ccn4CCN(C)C)c3)cc2)C1` (stereo not drawn) [Example 29, 1-[1-(2-Di-methylaminoethyl)-1H-in-dol-5-yl]-3-[4-(3-methyl-piperidin-1-yl)phe-nyl]urea] gave an IC50 of 2910 nM.
`COc1cc(Nc2ccccc2)ccc1NC(=O)Nc1ccc2c(ccn2CCN(C)C)c1` [Example 79, 1-[1-(2-Dimethyl-aminoethyl)-1H-indol-5-yl]-3-(2-meth-oxy-4-phenyl-aminophenyl)-urea] was tested, and the IC50 was 2130 nM.
With `Cc1cc2cc(NC(=O)Nc3ccc(Oc4ccccc4)cc3)ccc2n1CCN(C)C` [Example 19, 1-[1-(2-Dimethylaminoethyl)-2-methyl-1H-indol-5-yl]-3-(4-phenoxyphenyl)urea] the IC50 was 700 nM.
`Cc1nc2cc(NC(=O)Nc3ccc(Oc4ccccc4)cc3)ccc2n1CCN1CCCC1` [Example 9] was tested, and the IC50 was 100 nM.
For `COc1cccc(Oc2ccc(NC(=O)Nc3ccc4c(ccn4CCN(C)C)c3)cc2)c1` [Example 109, 1-[1-(2-Dimethyl-aminoethyl)-1H-indol-5-yl]-3-[4-(3-meth-oxyphenoxy)-phenyl]urea], the IC50 was 1290 nM.
With `CCN1CCCC1Cn1c(C)nc2cc(NC(=O)Nc3ccc(Oc4ccccc4)cc3)ccc21` (stereo not drawn) [Example 16, 1-[1-(1-Ethylpyrrolidin-2-ylmethyl)-2-methyl-1H-benzoimidazol-5-yl]-3-(4-phenoxy-phenyl)urea] the IC50 was 330 nM.
For `CN(C)Cc1nc2cc(NC(=O)Nc3ccc(Oc4ccccc4)cc3)ccc2[nH]1` [Example 17, 1-(2-Dimethylaminomethyl-1H-benzoimidazol-5-yl)-3-(4-phenoxyphenyl)urea], the IC50 was 2140 nM.
Work on `CC(C)COc1ccc(NC(=O)Nc2ccc3c(ccn3CCN(C)C)c2)cc1F` [Example 65, 1-[1-(2-Dimethyl-aminoethyl)-1H-in-dol-5-yl]-3-(3-fluoro-4-iso-butoxyphenyl)urea] yielded an IC50 of 500 nM.
With `CN(C)CCn1ccc2cc(NC(=O)Nc3ccc(N4CCCC4)cc3)ccc21` [Example 22, 1-[1-(2-Di-methylaminoethyl)-1H-in-dol-5-yl]-3-(4-pyr-rolidin-1-ylphe-nyl)urea] the IC50 was 4420 nM.
`CN(C)CCn1ccc2cc(NC(=O)Nc3ccc(Oc4cccnc4)cc3)ccc21` [Example 73, 1-[1-(2-Dimethyl-aminoethyl)-1H-in-dol-5-yl]-3-[4-(py-ridin-3-yloxy)phe-nyl]urea] showed an IC50 of 140 nM.
`Cc1nc2cc(NC(=O)Nc3ccc(OC(C)C)cc3)ccc2n1CCN1CCCCC1` [Example 7, 1-(4-Isopropoxyphenyl)-3-[2-methyl-1-(2-piperidin-1-ylethyl)-1H-benzoimidazol-5-yl]urea] gave an IC50 of 450 nM.
For `Cn1c(CN2CCCC2)cc2cc(NC(=O)Nc3ccc(Oc4ccccc4)cc3)ccc21` [Example 3, 1-(1-Methyl-2-pyrrolidin-1-ylmethyl-1H-indol-5-yl)-3-(4-phenoxyphenyl)urea], the IC50 was 290 nM.
With `Cc1nc2cc(NC(=O)Nc3ccc(OC(C)C)cc3)ccc2n1CCN(C)C` [Example 5, 1-[1-(2-Dimethylaminoethyl)-2-methyl-1H-benzoimidazol-5-yl]-3-(4-isopropoxyphenyl)urea] the IC50 was 500 nM.
In the case of `COc1ccccc1Oc1ccc(NC(=O)Nc2ccc3c(ccn3CCN(C)C)c2)cc1` [Example 76], the IC50 is reported as 4250 nM.
Compound `CCCCOc1ccc(NC(=O)Nc2ccc3c(ccn3CCN(C)C)c2)cc1` [Example 2, 1-(4-Butoxyphenyl)-3-[1-(2-dimethylaminoethyl)-1H-indol-5-yl]urea] has an IC50 of 150 nM.
Compound `CCCCc1ccc(NC(=O)Nc2ccc3c(ccn3CCN(C)C)c2)cc1` [Example 71, 1-(4-Butylphenyl)-3-[1-(2-di-methylaminoethyl)-1H-in-dol-5-yl]urea] has an IC50 of 2650 nM.
In the case of `O=C(Nc1ccc(Oc2ccccc2)cc1)Nc1ccc2c(c1)ncn2CCN1CCCC1` [Example 11, 1-(4-Phenoxyphenyl)-3-[1-(2-pyrrolidin-1-ylethyl)-1H-benzoimidazol-5-yl]urea], the IC50 is reported as 140 nM.
With `CN(C)CCn1ccc2cc(NC(=O)Nc3ccc(Oc4cccc(Cl)c4)cc3)ccc21` [Example 77, 1-[4-(3-Chloro-phenoxy)-phe-nyl]-3-[1-(2-dimethyl-aminoethyl)-1H-in-dol-5-yl]urea] the IC50 was 700 nM.
`Cc1nc2cc(NC(=O)Nc3ccc(Oc4ccccc4)cc3)ccc2n1CCN1CCCCC1` [Example 15, 1-[2-Methyl-1-(2-piperidin-1-ylethyl)-1H-benzoimidazol-5-yl]-3-(4-phenoxyphenyl) urea] was tested, and the IC50 was 180 nM.
Compound `CN(C)CCn1ccc2cc(NC(=O)Nc3ccc(N4CCSCC4)cc3)ccc21` [Example 26, 1-[1-(2-Di-methylaminoethyl)-1H-in-dol-5-yl]-3-(4-thio-morpholin-4-yl-phe-nyl)urea] has an IC50 of 920 nM.
`CN(C)CCn1ccc2cc(NC(=O)Nc3ccc(-c4ccc(F)cc4)cc3)ccc21` [Example 81, 1-[1-(2-Di-methylaminoethyl)-1H-in-dol-5-yl]-3-(4′-fluoro-biphenyl-4-yl)urea] showed an IC50 of 2690 nM.
`CN(C)CCn1ccc2cc(NC(=O)Nc3ccc(Oc4ccccc4Cl)cc3)ccc21` [Example 105, 1-[4-(2-Chloro-phenoxy)-phenyl]-3-[1-(2-di-methylaminoethyl)-1H-in-dol-5-yl]urea] was tested, and the IC50 was 1000 nM.
`CCN1CCCC1Cn1c(C)nc2cc(NC(=O)Nc3ccc(OC(C)C)cc3)ccc21` (stereo not drawn) [Example 6, 1-[1-(1-Ethylpyrrolidin-2-ylmethyl)-2-methyl-1H-benzoimidazol-5-yl]-3-(4-isopropoxyphenyl)urea] gave an IC50 of 2340 nM.
`CN(C)CCn1ccc2cc(NC(=O)Nc3ccc(-c4ccccc4)cc3)ccc21` [Example 78, 1-Biphenyl-4-yl-3-[1-(2-di-methylaminoethyl)-1H-in-dol-5-yl]urea] gave an IC50 of 2750 nM.
Compound `CC(C)COc1ccc(NC(=O)Nc2ccc3c(ccn3CCN(C)C)c2)cc1` [Example 72, 1-[1-(2-Dimethyl-aminoethyl)-1H-in-dol-5-yl]-3-(4-iso-butoxyphenyl)urea] has an IC50 of 320 nM.
With `CN(C)CCn1ccc2cc(NC(=O)Nc3ccc(OCc4ccccc4)cc3)ccc21` [Example 80, 1-(4-Benzyloxyphenyl)-3-[1-(2-di-methylaminoethyl)-1H-in-dol-5-yl]urea] the IC50 was 3360 nM.
`CN(C)CCn1ccc2cc(NC(=O)Nc3ccc(Oc4ccccc4)nc3)ccc21` [Example 106, 1-[1-(2-Di-methylaminoethyl)-1H-in-dol-5-yl]-3-(6-phenoxy-pyridin-3-yl)urea] showed an IC50 of 200 nM.
For `Cc1nc2cc(NC(=O)Nc3ccc(Oc4ccccc4)cc3)ccc2n1CCN(C)C` [Example 10, 1-[2-Methyl-1-(2-dimethylaminoethyl)-1H-benzoimidazol-5-yl]-3-(4-phenoxyphenyl)urea], the IC50 was 110 nM.
